Assay [1] has as its target T1, Histone deacetylase 8 (Homo sapiens, UniProt Q9BY41).
T1 sequence (Q9BY41 whole entry): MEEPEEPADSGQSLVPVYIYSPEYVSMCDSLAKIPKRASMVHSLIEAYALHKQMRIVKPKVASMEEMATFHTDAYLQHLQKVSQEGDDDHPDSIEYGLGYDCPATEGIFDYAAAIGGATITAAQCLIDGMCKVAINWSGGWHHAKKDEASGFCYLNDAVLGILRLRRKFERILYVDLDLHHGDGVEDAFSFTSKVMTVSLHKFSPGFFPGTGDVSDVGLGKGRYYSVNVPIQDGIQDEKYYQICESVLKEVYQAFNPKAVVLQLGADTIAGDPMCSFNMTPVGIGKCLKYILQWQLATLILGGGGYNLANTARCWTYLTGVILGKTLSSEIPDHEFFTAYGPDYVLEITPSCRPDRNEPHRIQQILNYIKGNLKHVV
The assay can be described thus: Inhibition of full length HDAC8 assessed as 7-amino-4-methylcoumarin release from fluorophore conjugated substrate after 5 mins by fluorescence assay.

The target of assay [2] is Histone deacetylase 2 (Homo sapiens, UniProt Q92769). The assay can be described thus: Inhibition of full length HDAC2 assessed as 7-amino-4-methylcoumarin release from fluorophore conjugated substrate after 5 mins by fluorescence assay.
Sequence of Histone deacetylase 2 (Q92769 whole entry): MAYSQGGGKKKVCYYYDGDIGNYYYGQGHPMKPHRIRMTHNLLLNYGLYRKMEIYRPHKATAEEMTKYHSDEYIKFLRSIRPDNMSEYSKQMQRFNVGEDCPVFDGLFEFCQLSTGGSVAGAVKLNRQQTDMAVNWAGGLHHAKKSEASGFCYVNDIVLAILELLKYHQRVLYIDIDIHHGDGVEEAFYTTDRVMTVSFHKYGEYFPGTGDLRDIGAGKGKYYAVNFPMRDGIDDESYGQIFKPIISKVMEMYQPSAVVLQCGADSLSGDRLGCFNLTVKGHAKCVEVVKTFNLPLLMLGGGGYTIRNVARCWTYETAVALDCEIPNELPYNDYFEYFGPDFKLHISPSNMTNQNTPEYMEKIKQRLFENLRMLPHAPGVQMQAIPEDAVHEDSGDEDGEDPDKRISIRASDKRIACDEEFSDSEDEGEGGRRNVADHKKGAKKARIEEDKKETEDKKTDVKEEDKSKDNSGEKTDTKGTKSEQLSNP
In assay [3] the target is Histone deacetylase 3/Nuclear receptor corepressor 2 (HDAC3/NCoR2) (Homo sapiens, UniProt O15379). The assay can be described thus: Inhibition of full length HDAC3/NCoR2 assessed as 7-amino-4-methylcoumarin release from fluorophore conjugated substrate after 5 mins by fluorescence assay. In kind it is protein-complex assay.
Sequence of Histone deacetylase 3/Nuclear receptor corepressor 2 (HDAC3/NCoR2) (O15379 whole entry): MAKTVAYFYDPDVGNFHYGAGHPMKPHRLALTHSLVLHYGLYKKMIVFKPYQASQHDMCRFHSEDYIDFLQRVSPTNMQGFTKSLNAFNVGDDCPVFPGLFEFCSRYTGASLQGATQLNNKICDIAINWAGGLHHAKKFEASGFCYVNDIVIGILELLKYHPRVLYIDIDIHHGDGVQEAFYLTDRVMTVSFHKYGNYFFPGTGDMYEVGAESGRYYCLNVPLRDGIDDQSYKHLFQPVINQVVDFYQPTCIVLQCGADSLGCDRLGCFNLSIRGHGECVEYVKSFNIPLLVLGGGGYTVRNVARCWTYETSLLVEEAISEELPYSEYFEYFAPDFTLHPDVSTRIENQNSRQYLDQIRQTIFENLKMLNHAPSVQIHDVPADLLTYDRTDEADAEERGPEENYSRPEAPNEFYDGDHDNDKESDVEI
Sequence of Histone deacetylase 3/Nuclear receptor corepressor 2 (HDAC3/NCoR2) (Q9Y618 whole entry, further chain): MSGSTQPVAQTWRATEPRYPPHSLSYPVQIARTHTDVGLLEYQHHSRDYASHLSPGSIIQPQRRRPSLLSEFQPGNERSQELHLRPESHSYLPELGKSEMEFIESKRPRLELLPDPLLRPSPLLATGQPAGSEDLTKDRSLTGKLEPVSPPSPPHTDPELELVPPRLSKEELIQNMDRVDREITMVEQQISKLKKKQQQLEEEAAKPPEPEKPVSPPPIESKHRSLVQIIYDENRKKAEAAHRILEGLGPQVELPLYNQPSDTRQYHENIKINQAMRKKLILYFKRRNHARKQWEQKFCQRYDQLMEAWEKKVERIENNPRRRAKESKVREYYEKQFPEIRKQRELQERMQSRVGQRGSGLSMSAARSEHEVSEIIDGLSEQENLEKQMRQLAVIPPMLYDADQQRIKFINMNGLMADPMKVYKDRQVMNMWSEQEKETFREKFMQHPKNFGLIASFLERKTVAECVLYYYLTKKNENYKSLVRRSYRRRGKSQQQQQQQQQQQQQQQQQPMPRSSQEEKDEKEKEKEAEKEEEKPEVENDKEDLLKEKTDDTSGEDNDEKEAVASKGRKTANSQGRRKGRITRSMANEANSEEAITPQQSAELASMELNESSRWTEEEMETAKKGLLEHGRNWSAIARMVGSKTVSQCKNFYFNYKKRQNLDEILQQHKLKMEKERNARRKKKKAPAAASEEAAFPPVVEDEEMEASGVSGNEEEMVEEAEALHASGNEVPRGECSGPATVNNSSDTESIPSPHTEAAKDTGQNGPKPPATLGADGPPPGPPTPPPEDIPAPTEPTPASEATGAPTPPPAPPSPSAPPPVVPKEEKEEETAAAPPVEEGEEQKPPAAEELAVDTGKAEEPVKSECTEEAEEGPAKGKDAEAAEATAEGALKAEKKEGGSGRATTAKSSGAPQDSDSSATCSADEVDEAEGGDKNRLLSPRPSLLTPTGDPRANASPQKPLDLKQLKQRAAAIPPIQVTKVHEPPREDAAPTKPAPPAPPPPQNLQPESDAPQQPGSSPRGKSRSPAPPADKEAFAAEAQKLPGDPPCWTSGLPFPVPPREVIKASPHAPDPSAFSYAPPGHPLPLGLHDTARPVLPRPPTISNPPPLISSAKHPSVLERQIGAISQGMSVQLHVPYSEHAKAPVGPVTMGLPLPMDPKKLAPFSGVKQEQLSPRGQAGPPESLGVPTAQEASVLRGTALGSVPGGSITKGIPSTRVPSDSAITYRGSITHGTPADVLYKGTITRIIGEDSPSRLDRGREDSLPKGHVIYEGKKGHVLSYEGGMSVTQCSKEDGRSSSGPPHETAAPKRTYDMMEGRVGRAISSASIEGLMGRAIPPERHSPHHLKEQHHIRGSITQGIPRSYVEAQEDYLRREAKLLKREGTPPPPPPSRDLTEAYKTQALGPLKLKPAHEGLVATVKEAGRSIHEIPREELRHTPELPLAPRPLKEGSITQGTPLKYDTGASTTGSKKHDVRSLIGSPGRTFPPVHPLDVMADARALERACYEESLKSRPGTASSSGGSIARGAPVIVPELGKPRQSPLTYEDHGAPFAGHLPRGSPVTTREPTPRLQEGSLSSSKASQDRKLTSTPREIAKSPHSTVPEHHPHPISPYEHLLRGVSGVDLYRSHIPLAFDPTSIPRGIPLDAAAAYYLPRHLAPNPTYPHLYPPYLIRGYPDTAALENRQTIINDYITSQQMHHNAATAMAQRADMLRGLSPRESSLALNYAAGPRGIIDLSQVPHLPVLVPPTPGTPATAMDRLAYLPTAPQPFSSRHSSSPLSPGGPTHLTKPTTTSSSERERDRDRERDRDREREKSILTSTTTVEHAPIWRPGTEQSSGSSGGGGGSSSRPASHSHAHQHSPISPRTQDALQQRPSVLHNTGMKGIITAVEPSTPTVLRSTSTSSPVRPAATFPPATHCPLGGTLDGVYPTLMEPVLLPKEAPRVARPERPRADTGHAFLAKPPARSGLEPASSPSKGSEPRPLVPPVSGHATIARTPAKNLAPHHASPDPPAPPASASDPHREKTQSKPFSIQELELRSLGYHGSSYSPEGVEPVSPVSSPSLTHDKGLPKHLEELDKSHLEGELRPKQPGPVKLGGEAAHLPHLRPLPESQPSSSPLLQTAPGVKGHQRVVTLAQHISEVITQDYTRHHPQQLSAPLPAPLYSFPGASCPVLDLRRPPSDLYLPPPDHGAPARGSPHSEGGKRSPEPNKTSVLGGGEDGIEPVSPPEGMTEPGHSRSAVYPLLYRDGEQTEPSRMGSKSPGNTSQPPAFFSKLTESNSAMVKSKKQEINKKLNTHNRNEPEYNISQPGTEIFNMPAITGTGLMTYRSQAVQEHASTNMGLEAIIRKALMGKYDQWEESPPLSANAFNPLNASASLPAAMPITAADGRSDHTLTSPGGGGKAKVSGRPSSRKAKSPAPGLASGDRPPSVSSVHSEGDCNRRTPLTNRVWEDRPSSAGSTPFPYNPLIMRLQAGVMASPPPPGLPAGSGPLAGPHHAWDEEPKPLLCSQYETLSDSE

One may read the IC50 as the concentration needed to halve the response being measured. Turning to `C#CCOc1ccc(/C=N/NC(=O)CCCCCCC(=O)NO)cc1`, the results for the IC50 in assay [1], in assay [2] and in assay [3] were 0.29 µM, 0.0021 µM and 0.0031 µM, respectively.

For the compound `O=C1CC/C=C/CCC(=O)N(Cc2cccc(/C=N/NC(=O)c3cccc(C(=O)NO)c3)c2)C[C@@H](c2ccccc2)O1`, the results for the half-inhibitory concentration (IC50) in assay [1], in assay [2] and in assay [3] were 0.023 µM, 3.6 µM and 15 µM, respectively.

As for `O=C1CC/C=C/CCC(=O)N(Cc2cccc(/C=N/NC(=O)c3cccc(C(=O)NO)c3)c2)C[C@H](c2ccccc2)O1`, the IC50 in assay [1] is 0.11 µM; in assay [2], 5 µM; in assay [3] it was 15 µM.

On to `O=C(NO)c1cccc(C(=O)N/N=C/c2ccccc2)c1`, for which the results for the half-inhibitory concentration (IC50) in assay [1], in assay [2] and in assay [3] were 0.052 µM, 20 µM and 18 µM, respectively.

`C#CCOc1ccc(/C=N/NC(=O)c2cccc(C(=O)NO)c2)cc1`: the half-inhibitory concentration (IC50) amounted to 0.029 µM in assay [1], 6.3 µM in assay [2] and 6.2 µM in assay [3].

The values above are taken from ChEMBL document CHEMBL1770095, “Discovery of histone deacetylase 8 selective inhibitors” (Bioorg Med Chem Lett, 2011).
